From patent publication US8669249B2, “Poly (ADP-ribose) polymerase (PARP) inhibitors” (Takeda Pharmaceutical Company Limited, priority 2009, dated 2014)

How the values were obtained:
[1] = biological target: T1, PARP (Homo sapiens, UniProt P09874); test: PARP ELISA (ELISA-based colorimetric PARP/Apoptosis Assay kit, Trevigen); format: biochemical; settings: pIC50=-log10 IC50, IC50 in mol/L; inhibition of PARP catalytic activity
T1 construct: purchased Trevigen 4684-096-K HT (kit); 4684-096-01 (PARP enzyme)
How it was run: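 Quenched after 10 min catalysis by aspiration and four PBS/0.1% Triton X-100 washes. Poly(ADP-ribose) detected with mouse anti-PAR monoclonal antibody, goat anti-mouse IgG-HRP and HRP substrate; colorimetric signal proportional to PARP catalytic activity.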

[2] = biological target: T2, catalytic domain of Human PARP (Homo sapiens, UniProt P09874); test: Biacore surface plasmon resonance affinity assay; format: binding; settings: pKD=-log10 KD, KD in mol/L; Biacore T100, 25° C.; read-out: pKD (converted)
T2 construct: The catalytic domain of Human PARP was cloned and prepared; made in house
How it was run: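 Binding at 25° C on Biacore T100: 1 min compound association then 5 min dissociation (50 μL/min) over immobilized PARP catalytic domain, buffer HBS-P plus 1% DMSO, 0.5 mM TCEP, 5 mM MgCl2, 2-fold dilution series. KD derived as koff/kon from fitted association and dissociation phases.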

[3] = tested on: Jurkat cell line; test: PARP cellular chemopotentiation assay (MTS, with/without TMZ); format: cell-based; settings: Chemopotentiation factor: ratio of EC50 values of Jurkat cells co-treated without and with 100 μM TMZ; 96 hours
How it was run: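 Jurkat cells, 10,000/well, pre-cultured 24 h, then treated 96 h with serial compound dilutions (0.5% DMSO) with or without 100 μM TMZ. Viability by MTS conversion (OD490), normalized to DMSO controls; EC50 from curve fits, PF50 = EC50 without TMZ / EC50 with TMZ.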

T2 sequence (P09874 788-1014 limits assumed): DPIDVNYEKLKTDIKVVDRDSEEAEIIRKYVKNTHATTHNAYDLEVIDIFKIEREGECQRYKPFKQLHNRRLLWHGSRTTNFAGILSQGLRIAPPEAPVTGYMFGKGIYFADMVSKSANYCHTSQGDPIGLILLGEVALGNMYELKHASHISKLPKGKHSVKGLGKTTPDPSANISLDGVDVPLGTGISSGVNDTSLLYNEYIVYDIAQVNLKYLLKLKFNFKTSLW
T1 sequence (P09874 whole entry): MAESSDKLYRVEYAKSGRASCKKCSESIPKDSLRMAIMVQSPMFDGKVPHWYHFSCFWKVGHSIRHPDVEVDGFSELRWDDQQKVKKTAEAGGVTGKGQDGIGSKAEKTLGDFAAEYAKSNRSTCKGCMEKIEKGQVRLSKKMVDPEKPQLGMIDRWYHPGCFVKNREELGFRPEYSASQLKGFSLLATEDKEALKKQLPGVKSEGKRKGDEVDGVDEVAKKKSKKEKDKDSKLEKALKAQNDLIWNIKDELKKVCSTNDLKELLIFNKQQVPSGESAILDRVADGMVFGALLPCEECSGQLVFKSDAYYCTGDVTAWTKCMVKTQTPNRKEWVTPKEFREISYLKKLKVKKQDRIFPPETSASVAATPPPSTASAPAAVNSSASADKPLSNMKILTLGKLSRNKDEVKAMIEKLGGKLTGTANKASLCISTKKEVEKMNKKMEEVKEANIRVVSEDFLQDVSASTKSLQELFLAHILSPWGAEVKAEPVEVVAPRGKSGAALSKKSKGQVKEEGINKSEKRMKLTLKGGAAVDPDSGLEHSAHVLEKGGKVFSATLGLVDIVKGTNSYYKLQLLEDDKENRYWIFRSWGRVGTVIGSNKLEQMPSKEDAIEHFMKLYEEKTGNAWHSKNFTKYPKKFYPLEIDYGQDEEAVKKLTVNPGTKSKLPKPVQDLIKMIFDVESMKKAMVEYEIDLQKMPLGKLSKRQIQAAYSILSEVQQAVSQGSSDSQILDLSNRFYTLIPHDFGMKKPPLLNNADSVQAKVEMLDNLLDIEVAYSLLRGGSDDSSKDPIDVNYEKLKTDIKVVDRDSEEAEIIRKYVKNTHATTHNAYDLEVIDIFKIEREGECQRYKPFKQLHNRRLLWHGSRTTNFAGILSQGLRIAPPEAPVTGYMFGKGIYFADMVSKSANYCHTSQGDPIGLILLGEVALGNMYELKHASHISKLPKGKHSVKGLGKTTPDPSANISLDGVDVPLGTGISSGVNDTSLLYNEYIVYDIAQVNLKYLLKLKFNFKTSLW

IC50 [1] [nM] | Kd [2] [nM] | SMILES | PF50 [3]
≤ 31.6 | ≤ 10 | Cc1cc(CN2CCN(c3ccc(C(=O)NC4CC4)cc3)CC2)cc2c1OC(C)C(=O)N2 (stereo not drawn) [Compound 259, N-Cyclopropyl-4-(4-((2,8-dimethyl-3-oxo-3,4-dihydro-2H-benzo[b][1,4]oxazin-6-yl)methyl)piperazin-1-yl)benzamide] | ≧10.0
39.8 to 100 | ≤ 10 | CCNC(=O)c1ccc(N2CCN(Cc3cc(C)c4c(c3)NC(=O)C(C)O4)CC2)nc1 (stereo not drawn) [Compound 261, 6-(4-((2,8-Dimethyl-3-oxo-3,4-dihydro-2H-benzo[b][1,4]oxazin-6-yl)methyl)piperazin-1-yl)-N-ethylnicotinamide] | 2.0-9.9
≤ 31.6 | ≤ 10 | CC1Oc2c(F)cc(CN3CCN(c4ccc(C#N)cn4)CC3)cc2NC1=O (stereo not drawn) [Compound 267, 6-(4-((8-fluoro-2-methyl-3-oxo-3,4-dihydro-2H-benzo[b][1,4]oxazin-6-yl)methyl)piperazin-1-yl)nicotinonitrile] | 1.0-1.9
39.8 to 100 | ≤ 10 | CNC(=O)c1ccc(N2CCN(Cc3cc(F)c4c(c3)NC(=O)C(C)O4)CC2)cc1 (stereo not drawn) [Compound 271, 4-(4-((8-Fluoro-2-methyl-3-oxo-3,4-dihydro-2H-benzo[b][1,4]oxazin-6-yl)methyl)piperazin-1-yl)-N-methylbenzamide] | ≦0.9
39.8 to 100 | < 31.6 | CCNC(=O)c1ccc(N2CCN(Cc3cc(F)c4c(c3)NC(=O)C(C)O4)CC2)cc1 (stereo not drawn) [Compound 272, N-Ethyl-4-(4-((8-fluoro-2-methyl-3-oxo-3,4-dihydro-2H-benzo[b][1,4]oxazin-6-yl)methyl)piperazin-1-yl)benzamide] | 1.0-1.9
≤ 31.6 | < 31.6 | CC1Oc2c(F)cc(CN3CCN(c4ccc(C(=O)NC5CC5)cc4)CC3)cc2NC1=O (stereo not drawn) [Compound 273, N-Cyclopropyl-4-(4-((8-fluoro-2-methyl-3-oxo-3,4-dihydro-2H-benzo[b][1,4]oxazin-6-yl)methyl)piperazin-1-yl)benzamide] | ≦0.9
